The values that follow come from ChEMBL document CHEMBL4011631, “Trisubstituted Pyridinylimidazoles as Potent Inhibitors of the Clinically Resistant L858R/T790M/C797S EGFR Mutant: Targeting of Both Hydrophobic Regions and the Phosphate Binding Site” (J Med Chem, 2017).

Calls of active or inactive are those of the source. No cut-off for these calls is given here.

Data set [1] has as its target T1, Epidermal growth factor receptor (Homo sapiens, UniProt P00533, L858R).
The target in data set [2] is T2, Epidermal growth factor receptor (Homo sapiens, UniProt P00533). The data set is classed as ADME.
Description: Inhibition of human N-terminal GST-fused EGFR cytoplasmic domain (669 to 1210 residues) expressed in baculovirus using TK-substrate-biotin preincubated for 30 mins followed by substrate addition measured after 25 mins by HTFR assay
For data set [3], the target named is T3, Epidermal growth factor receptor (Homo sapiens, UniProt P00533, L858R/T790M).
A further data set concerns A-431. The data set is described as follows: cells. The data set is classed as ADME, cell-based. Particulars: Homo sapiens, A-431, 96 h.
The next data set has as its system NCI-H1975. The data set can be described thus: cells. It is filed as functional, cell-based. Particulars: Homo sapiens, NCI-H1975, 96 h.
Data set [4] deals with Epidermal growth factor receptor (Homo sapiens, UniProt P00533, C797S/L858R/T790M). The data set can be described thus: Inhibition of human EGFR T790M/C797S/L858R triple mutant preincubated for 20 mins followed by [33P]ATP addition measured after 2 hrs.
Data set [5] can be described thus: Drug degradation in human liver microsomes at 100 uM preincubated for 5 mins with NADPH-regenerating system followed by liver microsomes addition measured after 240 mins by LC-MS analysis. It is filed as ADME, microsome. Particulars: read-out: Drug degradation. (In general: Microsomes from liver hold many membrane-bound enzymes, among them those of drug oxidation.)

Data set [6] deals with T1, Epidermal growth factor receptor. This is another data set of the same source.
Data set [7] concerns the target T3, Epidermal growth factor receptor. This is another data set of the same source.
Data set [8] has as its target T2, Epidermal growth factor receptor. Particulars: read-out: Ratio.
Description: Ratio of Kinact for human N-terminal GST-fused EGFR cytoplasmic domain (669 to 1210 residues) expressed in baculovirus to Ki for human N-terminal GST-fused EGFR cytoplasmic domain (669 to 1210 residues) expressed in baculovirus
Data set [9] has the same target. Particulars: for kinact: human.
Description: Inhibition of human N-terminal GST-fused EGFR cytoplasmic domain (669 to 1210 residues) expressed in baculovirus using TK-substrate-biotin incubated for 2 to 90 mins by HTFR assay
Data set [10] deals with Epidermal growth factor receptor (Homo sapiens), P00533 [T790M]. The data set can be described thus: Covalent binding affinity to EGFR T790M mutant (unknown origin) at 100 uM after 1 hr by mass spectrometric analysis.

Description for A-431: Antiproliferative activity against human A431 cells harboring wild type EGFR assessed as growth inhibition after 96 hrs by CellTiter-Glo assay

Take `C=CC(=O)Nc1ccc(OC)c(Nc2cc(-c3[nH]c(CCCO)nc3-c3ccc(F)cc3)ccn2)c1`: the IC50 (in general, the midpoint of a concentration-inhibition curve) was < 1 nM in data set [1], < 1 nM in data set [2], < 1 nM in data set [3] and 8 nM in data set [4]. For the same molecule, the figures for the EC50 with A-431 and in the data set on NCI-H1975 were 4000 nM and 400 nM, respectively. Moreover, in [5], the metabolised at 4 h, 100 µM is 9%. For the same molecule, the Ki – broadly, a dissociation constant, usually derived from enzyme kinetics or from competition with a known ligand – in data set [6] came out at 0.03 nM; in data set [7], 0.1 nM; in [9], 0.07 nM. Moreover, the kinact/KI in [8] was 1.5e+07 M⁻¹ s⁻¹. The kinact – broadly, the maximal first-order rate at which the target is inactivated – in data set [9] is 0.00267 s⁻¹.
In the case of `C=CC(=O)Nc1cc(Nc2cc(-c3[nH]c(SC)nc3-c3ccc(F)cc3)ccn2)cc(N2CCN(C)CC2)c1`, the IC50 is < 1 nM in data set [1], < 1 nM in data set [2], < 1 nM in data set [3] and 11 nM in [4]. Further, the EC50 (commonly the concentration at which the effect is half-maximal) with A-431 worked out at 1400 nM; with NCI-H1975 it was 1100 nM. Further, the metabolised at 4 h, 100 µM in data set [5] was 27%.
Regarding `C=CC(=O)Nc1cc(Nc2cc(-c3[nH]c(SC)nc3-c3ccc(F)cc3)ccn2)cc(N2CCOCC2)c1`, the IC50 in data set [1] is < 1 nM; in [2], < 1 nM; in data set [3] it was < 1 nM; in data set [4], 53 nM. The values for the EC50 in the data set with A-431 and in the data set with NCI-H1975 were 1500 nM and 1300 nM, respectively.
In the case of `C=CC(=O)NCCSc1nc(-c2ccc(F)cc2)c(-c2ccnc(Nc3ccccc3)c2)[nH]1`, the IC50 was 2.2 nM in [1], 1.6 nM in data set [2] and 38 nM in data set [3]. In addition, the EC50 in the data set on A-431 was determined as 12000 nM; in the data set with NCI-H1975, 2400 nM. The results for the Ki in data set [6], in data set [7] and in data set [9] were 0.38 nM, 6 nM and 1.6 nM, respectively. For the same molecule, the kinact/KI in data set [8] worked out at 940000 M⁻¹ s⁻¹. Besides, the maximal inactivation rate constant (kinact) in data set [9] is 0.0015 s⁻¹.
Take `CCC(=O)Nc1ccc(OC)c(Nc2cc(-c3[nH]c(SC)nc3-c3ccc(F)cc3)ccn2)c1`: the IC50 was < 1 nM in [1], < 1 nM in data set [2], 5 nM in data set [3] and 167 nM in data set [4]. Besides, the figures for the EC50 in the data set with A-431 and with NCI-H1975 were 7700 nM and 4300 nM, respectively.
Turning to `CCC(=O)Nc1ccc(OC)c(Nc2cc(-c3[nH]c(CCCO)nc3-c3ccc(F)cc3)ccn2)c1`, the IC50 is < 1 nM in data set [1], < 1 nM in data set [2], < 1 nM in data set [3] and 7 nM in [4]. Further, the EC50 in the data set with A-431 came to 17000 nM; in the data set with NCI-H1975, 7200 nM.
With `CCC(=O)Nc1cccc(Nc2cc(-c3[nH]c(SC)nc3-c3ccc(F)cc3)ccn2)c1`, the IC50 in data set [1] is 6.8 nM; in [2], 22 nM; in [3] it was 93 nM; in data set [4], 223 nM. The outcome in data set [10] was inactive. In addition, the EC50 in the data set on A-431 was 1500 nM; with NCI-H1975, 2200 nM.
On to `C=CC(=O)Nc1ccc(OC)c(Nc2cc(-c3[nH]c(SC)nc3C3CCC3)ccn2)c1`, for which the values for the IC50 in data set [1], in data set [2] and in data set [3] were < 1 nM, < 1 nM and 6.8 nM, respectively. Further, the EC50 in the data set with A-431 came out at 8900 nM; in the data set on NCI-H1975 it was 2000 nM.
Take `CCC(=O)Nc1ccc(OC)c(Nc2cc(-c3cnc(SC)[nH]3)ccn2)c1`: the concentration for half-maximal inhibition (IC50) in data set [1] amounted to 360 nM; in data set [2], 1770 nM; in [3], 3510 nM. Also, the EC50 in the data set on A-431 was 13000 nM; with NCI-H1975 it was > 30000 nM.
Taken in the same sequence, the figures for `C=CC(=O)Nc1ccc(OC)c(Nc2cc(-c3[nH]c(SC)nc3-c3ccc4ccccc4c3)ccn2)c1` were < 1 nM, < 1 nM, 1.1 nM, 3000 nM and 380 nM.
As for `C=CC(=O)Nc1ccc(OC)c(Nc2cc(-c3[nH]c(SC)nc3-c3ccc(F)cc3)ccn2)c1`, the outcome in [10] was Active. The EC50 in the data set on A-431 is 4100 nM; in the data set with NCI-H1975, < 14 nM. The metabolised at 4 h, 100 µM in data set [5] was 23%.
With `C=CC(=O)Nc1cccc(Nc2cc(-c3[nH]c(SCCNC(=O)CC)nc3-c3ccccc3)ccn2)c1`, the IC50 in data set [1] was < 1 nM; in data set [2] it was < 1 nM; in [3] it was 2.5 nM. The values for the EC50 in the data set on A-431 and with NCI-H1975 were 1500 nM and 2800 nM, respectively.
As to `C=CC(=O)Nc1cccc(Nc2cc(-c3[nH]c(SC)nc3-c3ccc(F)cc3)ccn2)c1`, the IC50 was < 1 nM in data set [1], < 1 nM in [2] and 3.3 nM in data set [3]. Also, the result in data set [10] was Active. In addition, the EC50 was determined as 1700 nM in the data set on A-431 and 190 nM in the data set on NCI-H1975.
On to `CSc1nc(-c2ccc(F)cc2)c(-c2ccnc(Nc3ccccc3)c2)[nH]1`, for which the values for the IC50 in data set [1], in data set [2] and in data set [3] were 2.5 nM, 24 nM and 130 nM, respectively. Moreover, the EC50 in the data set on A-431 was 11000 nM; with NCI-H1975 it was 22000 nM.
